Literature values as cited in US20210386741A1, “FORMULATIONS OF IBRUTINIB” (Zhuhai Beihai Biotech Co., Ltd., priority 2016, published 2021).

What was measured:
[1] = oral
human plasma protein = details: in vitro, no concentration dependence in the range of 50 to 1000 ng/mL

For `C=CC(=O)N1CCC[C@@H](n2nc(-c3ccc(Oc4ccccc4)cc3)c3c(N)ncnc32)C1` [ibrutinib], the Absolute bioavailability ([1]; fasted condition (n=8), 90% CI=2.1−3.9) is given as 2.9%, the “change of absolute bioavailability when combined with a meal” value ([1]; with a meal versus fasted) is given as “doubled” and the “increase of AUC on administration with food” value ([1]; with food compared with after overnight fasting) is given as “approximately 2 fold”. The solubility in water was “practically insoluble in water” and the “reversible binding to human plasma protein” value (human plasma protein) was 97.3%.
